# Measured values taken from patent publication US20230085307A1, “PYRIDAZINONE COMPOUND AND HERBICIDE” (NISSAN CHEMICAL CORPORATION, priority 2019, published 2023).
# Tests used:
# persian speedwell [1] = assay: Test Example 5: herbicidal effect by foliage application, plastic box (Table 20, symbol R); type: in vivo, Persian speedwell (Veronica persica); conditions: foliage application, 320 g/ha, evaluated three weeks after application
# How it was run: (§1)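 Foliar spray test: emulsion formulation diluted in water to a set application rate, sprayed onto 14-day-old plants raised in diluvial soil at 25° C to 30° C under glass. Both herbicidal effect and crop effect rated visually three weeks later.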
# velvetleaf [2] = assay: Test Example 4: herbicidal effect by soil treatment (Table 19, symbol M); type: in vivo, velvetleaf (Abutilon theophrasti); conditions: amount of applied herbicide 320 g/ha
# How it was run: (§2)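 Step 1: sow seeds in sterilized diluvial soil, cover ~1.5 cm. Step 2: spray diluted emulsion onto soil surface at predetermined rate. Step 3: greenhouse, 25–30° C, three weeks. Step 4: grade effect on each plant by earlier criteria.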
# windgrass = assay: Test Example 4: herbicidal effect by soil treatment (Table 19, symbol L); type: in vivo, windgrass (Apera spica-venti); conditions: amount of applied herbicide 320 g/ha
# How it was run: as §2
# southern crabgrass [3] = assay: Test Example 4: herbicidal effect by soil treatment (Table 19, symbol F); type: in vivo, southern crabgrass (Digitaria ciliaris); conditions: amount of applied herbicide 320 g/ha
# How it was run: as §2
# lambsquarters [4] = assay: Test Example 4: herbicidal effect by soil treatment (Table 19, symbol O); type: in vivo, lambsquarters (Chenopodium album); conditions: amount of applied herbicide 320 g/ha
# How it was run: as §2
# barnyard grass [5] = assay: Test Example 3: herbicidal effect by foliage application, Wagner pot (Table 18, symbol H); type: in vivo, barnyard grass (Echinochloa crus-galli); conditions: amount of applied herbicide 320 g/ha
# How it was run: (§3)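 Plants were sown in alluvial soil held under 0.1–0.5 cm standing water and grown 14 days in a greenhouse at 25–30 °C. An emulsifiable formulation, water-diluted to the set dose, was then sprayed onto the foliage, and effects were scored three weeks later using previously defined criteria.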
# blackgrass [6] = assay: Test Example 5: herbicidal effect by foliage application, plastic box (Table 20, symbol J); type: in vivo, blackgrass (Alopecurus myosuroides); conditions: foliage application, 320 g/ha, evaluated three weeks after application
# How it was run: as §1
# redroot pigweed [7] = assay: Test Example 4: herbicidal effect by soil treatment (Table 19, symbol N); type: in vivo, redroot pigweed (Amaranthus retroflexus); conditions: amount of applied herbicide 320 g/ha
# How it was run: as §2
# barnyard grass [8] = assay: Test Example 5: herbicidal effect by foliage application, plastic box (Table 20, symbol H); type: in vivo, barnyard grass (Echinochloa crus-galli); conditions: foliage application, 320 g/ha, evaluated three weeks after application
# How it was run: as §1
# Chinese sprangletop = assay: Test Example 3: herbicidal effect by foliage application, Wagner pot (Table 18, symbol D); type: in vivo, chinese sprangletop (Leptochloa chinensis); conditions: amount of applied herbicide 320 g/ha
# How it was run: as §3
# chickweed [9] = assay: Test Example 4: herbicidal effect by soil treatment (Table 19, symbol P); type: in vivo, common chickweed (Stellaria media); conditions: amount of applied herbicide 320 g/ha
# How it was run: as §2
# wild oat [10] = assay: Test Example 5: herbicidal effect by foliage application, plastic box (Table 20, symbol I); type: in vivo, wild oat (Avena fatua); conditions: foliage application, 320 g/ha, evaluated three weeks after application
# How it was run: as §1
# velvetleaf [11] = assay: Test Example 5: herbicidal effect by foliage application, plastic box (Table 20, symbol M); type: in vivo, velvetleaf (Abutilon theophrasti); conditions: foliage application, 320 g/ha, evaluated three weeks after application
# How it was run: as §1
# green foxtail [12] = assay: Test Example 5: herbicidal effect by foliage application, plastic box (Table 20, symbol G); type: in vivo, green foxtail (Setaria viridis); conditions: foliage application, 320 g/ha, evaluated three weeks after application
# How it was run: as §1
# rice flat sedge = assay: Test Example 3: herbicidal effect by foliage application, Wagner pot (Table 18, symbol E); type: in vivo, rice flat sedge (Cyperus iria); conditions: amount of applied herbicide 320 g/ha
# How it was run: as §3
# southern crabgrass [13] = assay: Test Example 5: herbicidal effect by foliage application, plastic box (Table 20, symbol F); type: in vivo, southern crabgrass (Digitaria ciliaris); conditions: foliage application, 320 g/ha, evaluated three weeks after application
# How it was run: as §1
# persian speedwell [14] = assay: Test Example 4: herbicidal effect by soil treatment (Table 19, symbol R); type: in vivo, Persian speedwell (Veronica persica); conditions: amount of applied herbicide 320 g/ha
# How it was run: as §2
# lambsquarters [15] = assay: Test Example 5: herbicidal effect by foliage application, plastic box (Table 20, symbol O); type: in vivo, lambsquarters (Chenopodium album); conditions: foliage application, 320 g/ha, evaluated three weeks after application
# How it was run: as §1
# wild oat [16] = assay: Test Example 4: herbicidal effect by soil treatment (Table 19, symbol I); type: in vivo, wild oat (Avena fatua); conditions: amount of applied herbicide 320 g/ha
# How it was run: as §2
# Italian ryegrass [17] = assay: Test Example 5: herbicidal effect by foliage application, plastic box (Table 20, symbol K); type: in vivo, Italian ryegrass (Lolium multiflorum); conditions: foliage application, 320 g/ha, evaluated three weeks after application
# How it was run: as §1
# redroot pigweed [18] = assay: Test Example 5: herbicidal effect by foliage application, plastic box (Table 20, symbol N); type: in vivo, redroot pigweed (Amaranthus retroflexus); conditions: foliage application, 320 g/ha, evaluated three weeks after application
# How it was run: as §1
# Italian ryegrass [19] = assay: Test Example 4: herbicidal effect by soil treatment (Table 19, symbol K); type: in vivo, Italian ryegrass (Lolium multiflorum); conditions: amount of applied herbicide 320 g/ha
# How it was run: as §2
# green foxtail [20] = assay: Test Example 4: herbicidal effect by soil treatment (Table 19, symbol G); type: in vivo, green foxtail (Setaria viridis); conditions: amount of applied herbicide 320 g/ha
# How it was run: as §2
# chickweed [21] = assay: Test Example 5: herbicidal effect by foliage application, plastic box (Table 20, symbol P); type: in vivo, common chickweed (Stellaria media); conditions: foliage application, 320 g/ha, evaluated three weeks after application
# How it was run: as §1
# blackgrass [22] = assay: Test Example 4: herbicidal effect by soil treatment (Table 19, symbol J); type: in vivo, blackgrass (Alopecurus myosuroides); conditions: amount of applied herbicide 320 g/ha
# How it was run: as §2
# barnyard grass [23] = assay: Test Example 4: herbicidal effect by soil treatment (Table 19, symbol H); type: in vivo, barnyard grass (Echinochloa crus-galli); conditions: amount of applied herbicide 320 g/ha
# How it was run: as §2
compound,measurement,setting,value
COc1cccc(-c2sc3ccc(F)cc3c2-c2c(O)c(C)nn(C)c2=O)c1 [2-209],herbicidal effect on R: persian speedwell (criteria 0-5),persian speedwell [1],5 (Herbicidal rate of 90% or more (almost completely withered))
same,"M: velvetleaf, herbicidal effect rating",velvetleaf [2],2 (Herbicidal rate of 20% or more and less than 40%)
same,"L: windgrass, herbicidal effect rating",windgrass,0 (Herbicidal rate of 5% or less (almost no effect))
same,"F: southern crabgrass, herbicidal effect rating",southern crabgrass [3],5 (Herbicidal rate of 90% or more (almost completely withered))
same,"O: lambsquarters, herbicidal effect rating",lambsquarters [4],5 (Herbicidal rate of 90% or more (almost completely withered))
same,herbicidal effect on H: barnyard grass,barnyard grass [5],5 (Herbicidal rate of 90% or more (almost completely withered))
same,herbicidal effect on J: blackgrass (criteria 0-5),blackgrass [6],4 (Herbicidal rate of 70% or more and less than 90%)
same,"N: redroot pigweed, herbicidal effect rating",redroot pigweed [7],4 (Herbicidal rate of 70% or more and less than 90%)
same,herbicidal effect on H: barnyard grass (criteria 0-5),barnyard grass [8],5 (Herbicidal rate of 90% or more (almost completely withered))
same,herbicidal effect on D: Chinese sprangletop,Chinese sprangletop,4 (Herbicidal rate of 70% or more and less than 90%)
same,"P: chickweed, herbicidal effect rating",chickweed [9],4 (Herbicidal rate of 70% or more and less than 90%)
same,herbicidal effect on I: wild oat (criteria 0-5),wild oat [10],0 (Herbicidal rate of 5% or less (almost no effect))
same,herbicidal effect on M: velvetleaf (criteria 0-5),velvetleaf [11],4 (Herbicidal rate of 70% or more and less than 90%)
same,herbicidal effect on G: green foxtail (criteria 0-5),green foxtail [12],5 (Herbicidal rate of 90% or more (almost completely withered))
same,herbicidal effect on E: rice flat sedge,rice flat sedge,5 (Herbicidal rate of 90% or more (almost completely withered))
same,herbicidal effect on F: southern crabgrass (criteria 0-5),southern crabgrass [13],5 (Herbicidal rate of 90% or more (almost completely withered))
same,"R: persian speedwell, herbicidal effect rating",persian speedwell [14],1 (Herbicidal rate of 5% or more and less than 20%)
same,herbicidal effect on O: lambsquarters (criteria 0-5),lambsquarters [15],4 (Herbicidal rate of 70% or more and less than 90%)
same,"I: wild oat, herbicidal effect rating",wild oat [16],0 (Herbicidal rate of 5% or less (almost no effect))
same,herbicidal effect on K: Italian ryegrass (criteria 0-5),Italian ryegrass [17],4 (Herbicidal rate of 70% or more and less than 90%)
same,herbicidal effect on N: redroot pigweed (criteria 0-5),redroot pigweed [18],5 (Herbicidal rate of 90% or more (almost completely withered))
same,"K: Italian ryegrass, herbicidal effect rating",Italian ryegrass [19],2 (Herbicidal rate of 20% or more and less than 40%)
same,"G: green foxtail, herbicidal effect rating",green foxtail [20],5 (Herbicidal rate of 90% or more (almost completely withered))
same,herbicidal effect on P: chickweed (criteria 0-5),chickweed [21],5 (Herbicidal rate of 90% or more (almost completely withered))
same,"J: blackgrass, herbicidal effect rating",blackgrass [22],0 (Herbicidal rate of 5% or less (almost no effect))
same,"H: barnyard grass, herbicidal effect rating",barnyard grass [23],4 (Herbicidal rate of 70% or more and less than 90%)
